Experimental data published in ChEMBL document CHEMBL5303573, “Mapping human microbiome drug metabolism by gut bacteria and their genes” (Nature, 2019).

Test: The drug is tested on Bifidobacterium breve strain: DSM20213 for biotransformation. The drug concentrations were measured before and after a 12-h incubation by liquid-chromatography-coupled mass spectrometry (LC–MS)
Details: 2 µM

Compound | Bacterial Biotransformation
Cc1ccc(S(=O)(=O)NC(=O)NN2CCCCCC2)cc1 [TOLAZAMIDE] | Compound NOT metabolized
COc1ccc(CN2CCNCC2)c(OC)c1OC.Cl.Cl [TRIMETAZIDINE DIHYDROCHLORIDE] | Compound NOT metabolized

Test: The drug is tested on Bacteroides caccae strain: ATCC43185 for biotransformation. The drug concentrations were measured before and after a 12-h incubation by liquid-chromatography-coupled mass spectrometry (LC–MS)
Details: 2 µM

Compound | Bacterial Biotransformation
CC(O)(CS(=O)(=O)c1ccc(F)cc1)C(=O)Nc1ccc(C#N)c(C(F)(F)F)c1 (configuration not stated) [BICALUTAMIDE] | Compound NOT metabolized
COc1ccc(CN2CCNCC2)c(OC)c1OC.Cl.Cl [TRIMETAZIDINE DIHYDROCHLORIDE] | Compound NOT metabolized

Test: The drug is tested on Bacteroides cellulosilyticus strain: DSM14838 for biotransformation. The drug concentrations were measured before and after a 12-h incubation by liquid-chromatography-coupled mass spectrometry (LC–MS)
Details: 2 µM

Compound | Bacterial Biotransformation
CC(O)(CS(=O)(=O)c1ccc(F)cc1)C(=O)Nc1ccc(C#N)c(C(F)(F)F)c1 (configuration not stated) [BICALUTAMIDE] | Compound NOT metabolized
Cc1ccc(S(=O)(=O)NC(=O)NN2CCCCCC2)cc1 [TOLAZAMIDE] | Compound metabolized
CCCCc1nc(Cl)c(CO)n1Cc1ccc(-c2ccccc2-c2nn[nH]n2)cc1 [LOSARTAN] | Compound metabolized
COc1ccc(CN2CCNCC2)c(OC)c1OC.Cl.Cl [TRIMETAZIDINE DIHYDROCHLORIDE] | Compound metabolized

Test: The drug is tested on Bacteroides finegoldii strain: DSM17565 for biotransformation. The drug concentrations were measured before and after a 12-h incubation by liquid-chromatography-coupled mass spectrometry (LC–MS)
Details: 2 µM

Compound | Bacterial Biotransformation
CC(O)(CS(=O)(=O)c1ccc(F)cc1)C(=O)Nc1ccc(C#N)c(C(F)(F)F)c1 (configuration not stated) [BICALUTAMIDE] | Compound NOT metabolized
CCCCc1nc(Cl)c(CO)n1Cc1ccc(-c2ccccc2-c2nn[nH]n2)cc1 [LOSARTAN] | Compound metabolized
COc1ccc(CN2CCNCC2)c(OC)c1OC.Cl.Cl [TRIMETAZIDINE DIHYDROCHLORIDE] | Compound NOT metabolized

Test: The drug is tested on Bacteroides fragilis strain: ATCC43859 for biotransformation. The drug concentrations were measured before and after a 12-h incubation by liquid-chromatography-coupled mass spectrometry (LC–MS)
Details: 2 µM

Compound | Bacterial Biotransformation
Cc1ccc(S(=O)(=O)NC(=O)NN2CCCCCC2)cc1 [TOLAZAMIDE] | Compound metabolized
CCCCc1nc(Cl)c(CO)n1Cc1ccc(-c2ccccc2-c2nn[nH]n2)cc1 [LOSARTAN] | Compound metabolized

Test: The drug is tested on Bacteroides ovatus strain: ATCC8483 for biotransformation. The drug concentrations were measured before and after a 12-h incubation by liquid-chromatography-coupled mass spectrometry (LC–MS)
Details: 2 µM

Compound | Bacterial Biotransformation
CC(O)(CS(=O)(=O)c1ccc(F)cc1)C(=O)Nc1ccc(C#N)c(C(F)(F)F)c1 (configuration not stated) [BICALUTAMIDE] | Compound NOT metabolized
Cc1ccc(S(=O)(=O)NC(=O)NN2CCCCCC2)cc1 [TOLAZAMIDE] | Compound metabolized
CCCCc1nc(Cl)c(CO)n1Cc1ccc(-c2ccccc2-c2nn[nH]n2)cc1 [LOSARTAN] | Compound NOT metabolized
COc1ccc(CN2CCNCC2)c(OC)c1OC.Cl.Cl [TRIMETAZIDINE DIHYDROCHLORIDE] | Compound metabolized

Test: The drug is tested on Blautia luti strain: DSM14534 for biotransformation. The drug concentrations were measured before and after a 12-h incubation by liquid-chromatography-coupled mass spectrometry (LC–MS)
Assay type: ADME
Design: dose 2 uM, timepoint 0 vs 12 hours
Details: 2 µM

Compound | Bacterial Biotransformation
CC(O)(CS(=O)(=O)c1ccc(F)cc1)C(=O)Nc1ccc(C#N)c(C(F)(F)F)c1 (configuration not stated) [BICALUTAMIDE] | Compound NOT metabolized
Cc1ccc(S(=O)(=O)NC(=O)NN2CCCCCC2)cc1 [TOLAZAMIDE] | Compound NOT metabolized
CCCCc1nc(Cl)c(CO)n1Cc1ccc(-c2ccccc2-c2nn[nH]n2)cc1 [LOSARTAN] | Compound NOT metabolized
COc1ccc(CN2CCNCC2)c(OC)c1OC.Cl.Cl [TRIMETAZIDINE DIHYDROCHLORIDE] | Compound NOT metabolized

Test: The drug is tested on Clostridium sp. strain: fecal isolate for biotransformation. The drug concentrations were measured before and after a 12-h incubation by liquid-chromatography-coupled mass spectrometry (LC–MS)
Details: 2 µM

Compound | Bacterial Biotransformation
CC(O)(CS(=O)(=O)c1ccc(F)cc1)C(=O)Nc1ccc(C#N)c(C(F)(F)F)c1 (configuration not stated) [BICALUTAMIDE] | Compound NOT metabolized
Cc1ccc(S(=O)(=O)NC(=O)NN2CCCCCC2)cc1 [TOLAZAMIDE] | Compound metabolized
COc1ccc(CN2CCNCC2)c(OC)c1OC.Cl.Cl [TRIMETAZIDINE DIHYDROCHLORIDE] | Compound NOT metabolized

Test: The drug is tested on Clostridium scindens strain: ATCC35704 for biotransformation. The drug concentrations were measured before and after a 12-h incubation by liquid-chromatography-coupled mass spectrometry (LC–MS)
Details: 2 µM

Compound | Bacterial Biotransformation
CC(O)(CS(=O)(=O)c1ccc(F)cc1)C(=O)Nc1ccc(C#N)c(C(F)(F)F)c1 (configuration not stated) [BICALUTAMIDE] | Compound NOT metabolized
Cc1ccc(S(=O)(=O)NC(=O)NN2CCCCCC2)cc1 [TOLAZAMIDE] | Compound NOT metabolized
CCCCc1nc(Cl)c(CO)n1Cc1ccc(-c2ccccc2-c2nn[nH]n2)cc1 [LOSARTAN] | Compound NOT metabolized
COc1ccc(CN2CCNCC2)c(OC)c1OC.Cl.Cl [TRIMETAZIDINE DIHYDROCHLORIDE] | Compound NOT metabolized

Test: The drug is tested on Clostridium symbiosum strain: ATCC14940 for biotransformation. The drug concentrations were measured before and after a 12-h incubation by liquid-chromatography-coupled mass spectrometry (LC–MS)
Details: 2 µM

Compound | Bacterial Biotransformation
CC(O)(CS(=O)(=O)c1ccc(F)cc1)C(=O)Nc1ccc(C#N)c(C(F)(F)F)c1 (configuration not stated) [BICALUTAMIDE] | Compound NOT metabolized
Cc1ccc(S(=O)(=O)NC(=O)NN2CCCCCC2)cc1 [TOLAZAMIDE] | Compound NOT metabolized
CCCCc1nc(Cl)c(CO)n1Cc1ccc(-c2ccccc2-c2nn[nH]n2)cc1 [LOSARTAN] | Compound NOT metabolized
COc1ccc(CN2CCNCC2)c(OC)c1OC.Cl.Cl [TRIMETAZIDINE DIHYDROCHLORIDE] | Compound NOT metabolized

Test: The drug is tested on Eubacterium hallii strain: DSM3353 for biotransformation. The drug concentrations were measured before and after a 12-h incubation by liquid-chromatography-coupled mass spectrometry (LC–MS)
Details: anaerobutyricum hallii, 2 µM

Compound | Bacterial Biotransformation
CC(O)(CS(=O)(=O)c1ccc(F)cc1)C(=O)Nc1ccc(C#N)c(C(F)(F)F)c1 (configuration not stated) [BICALUTAMIDE] | Compound NOT metabolized
Cc1ccc(S(=O)(=O)NC(=O)NN2CCCCCC2)cc1 [TOLAZAMIDE] | Compound metabolized
CCCCc1nc(Cl)c(CO)n1Cc1ccc(-c2ccccc2-c2nn[nH]n2)cc1 [LOSARTAN] | Compound NOT metabolized
COc1ccc(CN2CCNCC2)c(OC)c1OC.Cl.Cl [TRIMETAZIDINE DIHYDROCHLORIDE] | Compound NOT metabolized

Test: The drug is tested on Eubacterium rectale strain: ATCC33656 for biotransformation. The drug concentrations were measured before and after a 12-h incubation by liquid-chromatography-coupled mass spectrometry (LC–MS)
Details: agathobacter rectalis, 2 µM

Compound | Bacterial Biotransformation
CC(O)(CS(=O)(=O)c1ccc(F)cc1)C(=O)Nc1ccc(C#N)c(C(F)(F)F)c1 (configuration not stated) [BICALUTAMIDE] | Compound NOT metabolized
CCCCc1nc(Cl)c(CO)n1Cc1ccc(-c2ccccc2-c2nn[nH]n2)cc1 [LOSARTAN] | Compound NOT metabolized
COc1ccc(CN2CCNCC2)c(OC)c1OC.Cl.Cl [TRIMETAZIDINE DIHYDROCHLORIDE] | Compound NOT metabolized

Test: The drug is tested on Enterobacter cancerogenus strain: ATCC35316 for biotransformation. The drug concentrations were measured before and after a 12-h incubation by liquid-chromatography-coupled mass spectrometry (LC–MS)
Details: 2 µM

Compound | Bacterial Biotransformation
CC(O)(CS(=O)(=O)c1ccc(F)cc1)C(=O)Nc1ccc(C#N)c(C(F)(F)F)c1 (configuration not stated) [BICALUTAMIDE] | Compound metabolized
Cc1ccc(S(=O)(=O)NC(=O)NN2CCCCCC2)cc1 [TOLAZAMIDE] | Compound NOT metabolized
CCCCc1nc(Cl)c(CO)n1Cc1ccc(-c2ccccc2-c2nn[nH]n2)cc1 [LOSARTAN] | Compound NOT metabolized
COc1ccc(CN2CCNCC2)c(OC)c1OC.Cl.Cl [TRIMETAZIDINE DIHYDROCHLORIDE] | Compound NOT metabolized

Test: The drug is tested on Escherichia coli strain: BW25113 for biotransformation. The drug concentrations were measured before and after a 12-h incubation by liquid-chromatography-coupled mass spectrometry (LC–MS)
Details: 2 µM

Compound | Bacterial Biotransformation
CC(O)(CS(=O)(=O)c1ccc(F)cc1)C(=O)Nc1ccc(C#N)c(C(F)(F)F)c1 (configuration not stated) [BICALUTAMIDE] | Compound metabolized
Cc1ccc(S(=O)(=O)NC(=O)NN2CCCCCC2)cc1 [TOLAZAMIDE] | Compound NOT metabolized
COc1ccc(CN2CCNCC2)c(OC)c1OC.Cl.Cl [TRIMETAZIDINE DIHYDROCHLORIDE] | Compound NOT metabolized

Details: bacteroides fragilis, 12 h, 2 µM
Description: The drug is tested on Bacteroides fragilis strain: NCTC 9343 for biotransformation. The drug concentrations were measured before and after a 12-h incubation by liquid-chromatography-coupled mass spectrometry (LC–MS)

Compound | Bacterial Biotransformation
Cc1ccc(S(=O)(=O)NC(=O)NN2CCCCCC2)cc1 [TOLAZAMIDE] | Compound metabolized
CCCCc1nc(Cl)c(CO)n1Cc1ccc(-c2ccccc2-c2nn[nH]n2)cc1 [LOSARTAN] | Compound metabolized
COc1ccc(CN2CCNCC2)c(OC)c1OC.Cl.Cl [TRIMETAZIDINE DIHYDROCHLORIDE] | Compound metabolized

Details: bacteroides fragilis, 12 h, 2 µM
Remark: another data set of the same source
Description: The drug is tested on Bacteroides fragilis strain: DS-208 for biotransformation. The drug concentrations were measured before and after a 12-h incubation by liquid-chromatography-coupled mass spectrometry (LC–MS)

Compound | Bacterial Biotransformation
CC(O)(CS(=O)(=O)c1ccc(F)cc1)C(=O)Nc1ccc(C#N)c(C(F)(F)F)c1 (configuration not stated) [BICALUTAMIDE] | Compound NOT metabolized
Cc1ccc(S(=O)(=O)NC(=O)NN2CCCCCC2)cc1 [TOLAZAMIDE] | Compound metabolized

Details: bacteroides thetaiotaomicron, 12 h, 2 µM
Description: The drug is tested on Bacteroides thetaiotaomicron strain: VPI-5482 for biotransformation. The drug concentrations were measured before and after a 12-h incubation by liquid-chromatography-coupled mass spectrometry (LC–MS)

Compound | Bacterial Biotransformation
CC(O)(CS(=O)(=O)c1ccc(F)cc1)C(=O)Nc1ccc(C#N)c(C(F)(F)F)c1 (configuration not stated) [BICALUTAMIDE] | Compound NOT metabolized
Cc1ccc(S(=O)(=O)NC(=O)NN2CCCCCC2)cc1 [TOLAZAMIDE] | Compound metabolized
COc1ccc(CN2CCNCC2)c(OC)c1OC.Cl.Cl [TRIMETAZIDINE DIHYDROCHLORIDE] | Compound metabolized

Details: bacteroides thetaiotaomicron, 12 h, 2 µM
Remark: another data set of the same source
Description: The drug is tested on Bacteroides thetaiotaomicron strain: 3731 for biotransformation. The drug concentrations were measured before and after a 12-h incubation by liquid-chromatography-coupled mass spectrometry (LC–MS)

Compound | Bacterial Biotransformation
CC(O)(CS(=O)(=O)c1ccc(F)cc1)C(=O)Nc1ccc(C#N)c(C(F)(F)F)c1 (configuration not stated) [BICALUTAMIDE] | Compound NOT metabolized
Cc1ccc(S(=O)(=O)NC(=O)NN2CCCCCC2)cc1 [TOLAZAMIDE] | Compound metabolized
CCCCc1nc(Cl)c(CO)n1Cc1ccc(-c2ccccc2-c2nn[nH]n2)cc1 [LOSARTAN] | Compound NOT metabolized
COc1ccc(CN2CCNCC2)c(OC)c1OC.Cl.Cl [TRIMETAZIDINE DIHYDROCHLORIDE] | Compound metabolized

Details: parabacteroides distasonis, 12 h, 2 µM
Description: The drug is tested on Parabacteroides distasonis strain: ATCC8503 for biotransformation. The drug concentrations were measured before and after a 12-h incubation by liquid-chromatography-coupled mass spectrometry (LC–MS)

Compound | Bacterial Biotransformation
CC(O)(CS(=O)(=O)c1ccc(F)cc1)C(=O)Nc1ccc(C#N)c(C(F)(F)F)c1 (configuration not stated) [BICALUTAMIDE] | Compound metabolized
Cc1ccc(S(=O)(=O)NC(=O)NN2CCCCCC2)cc1 [TOLAZAMIDE] | Compound metabolized
CCCCc1nc(Cl)c(CO)n1Cc1ccc(-c2ccccc2-c2nn[nH]n2)cc1 [LOSARTAN] | Compound metabolized
COc1ccc(CN2CCNCC2)c(OC)c1OC.Cl.Cl [TRIMETAZIDINE DIHYDROCHLORIDE] | Compound metabolized
